Source: patent US20040231558A1, “Water-color ink” (priority 2001, published 2004)

What was measured:
Assay type in all cases: physicochemical
[1] = Evaluation of moisture resistance (image-recorded paper at 40° C. and humidity 85%, visual observation); conditions: for (B) moisture resistance: image-recorded paper at 40° C. and humidity 85%, visually observed
[2] = Evaluation of light fastness-1 (OD value of printed portion after 100 hours xenon fadeometer); conditions: for (A)-1 light fastness-1: ink prepared as in Example 1 from the salt named in the row, OD value of printed portion after 100 hours xenon fadeometer
Method: (§1) The prepared ink was filled in an ink cartridge for a piezo-type ink-jet printer EM-930C (manufactured by Seiko Epson). The printing was performed with this printer, and the light fastness was evaluated. Further, the storage stability of the ink was evaluated.
(A)-1 Evaluation of Light Fastness-1
Printing density (OD value) was measured after irradiating a printed portion with light for 100 hours using a xenon fadeometer (manufactured by Suga Shikenki) to evaluate the light fastness.

[3] = Evaluation of storage stability of ink (40° C. for 3 months, insoluble matter and clogging); conditions: recording liquid stored at 40° C. for 3 months; insoluble matter and clogging
Method: as §1
(C) Evaluation of Storage Stability of Ink:
After a recording liquid was stored at 40° C. for 3 months, it was observedwhether or not an insoluble matterwas precipitated, and whether or not clogging occurred after continuous recording with the foregoing printer for a long period of time.

[4] = Evaluation of light fastness-2 (OD value of printed portion after 400 hours xenon fadeometer); conditions: ink prepared as in Example 1 from the salt named in the row; OD value of printed portion after 400 hours xenon fadeometer
Method: as §1
(A)-2 Evaluation of Light Fastness-2
Printing density (OD value) was measured after irradiating a printed-portion with light for 400 hours using axenon fadeometer (manufactured by Suga Shikenki), and the light fastness was evaluated.

[5] = ink prepared as in Example 1, for comparative inks in comparison to the ink of the invention

SMILES | moisture resistance (in words) [1, 5] | light fastness (in words) [2, 5] | (C) storage stability [3] | (B) moisture resistance [1] | (A)-1 light fastness-1 [2] | (A)-2 light fastness-2 [4]
O=C(O)c1nn(-c2ccc(S(=O)(=O)O)cc2)c(O)c1N=Nc1ccc(S(=O)(=O)O)cc1 [C. I. Acid Yellow 23, reference compound] | poor | poor | ◯ |  |  | 
Cc1c(N=Nc2cc(C(=O)O)ccc2C(=O)O)c(O)n(CCCNc2nc(Cl)nc(NCCCn3c(O)c(N=Nc4cc(C(=O)O)ccc4C(=O)O)c(C)c(C#N)c3=O)n2)c(=O)c1C#N [Compound 247] |  |  | ◯ | ⊚ | ⊚ | ◯
N#Cc1c(C(F)(F)F)c(N=Nc2cc(C(=O)O)ccc2C(=O)O)c(O)n(CCNc2nc(Cl)nc(NCCn3c(O)c(N=Nc4cc(C(=O)O)ccc4C(=O)O)c(C(F)(F)F)c(C#N)c3=O)n2)c1=O [Compound 248] |  |  | Δ | ⊚ | ⊚ | ⊚
Cc1c(N=Nc2cc(C(=O)O)ccc2C(=O)O)c(O)n(CCCCCCNc2nc(Cl)nc(NCCn3c(O)c(N=Nc4cc(C(=O)O)ccc4C(=O)O)c(C)c(C#N)c3=O)n2)c(=O)c1C#N [Compound 249] |  |  | Δ | ⊚ | ⊚ | ◯
CCc1c(N=Nc2cc(C(=O)O)ccc2C(=O)O)c(O)n(CCNc2nc(Cl)nc(NCCn3c(O)c(N=Nc4cc(C(=O)O)ccc4C(=O)O)c(C(F)(F)F)c(C#N)c3=O)n2)c(=O)c1C#N [Compound 250] |  |  | Δ | ⊚ | ⊚ | ◯
CCc1c(N=Nc2cc(C(=O)O)ccc2C(=O)O)c(O)n(CCNc2nc(Cl)nc(NCCn3c(O)c(N=Nc4cc(C(=O)O)ccc4C(=O)O)c(CC)c(C#N)c3=O)n2)c(=O)c1C#N [Compound 251] |  |  | Δ | ⊚ | ⊚ | ⊚
Cc1c(N=Nc2cc(C(=O)O)ccc2C(=O)O)c(O)n(CCNc2nc(Cl)nc(NCCn3c(O)c(N=Nc4cc(C(=O)O)ccc4C(=O)O)c(C)c(C(N)=O)c3=O)n2)c(=O)c1C(N)=O [Compound 252] |  |  | Δ | ⊚ | ⊚ | ◯
CCOC(=O)Cc1c(N=Nc2cc(C(=O)O)ccc2C(=O)O)c(O)n(CCNc2nc(Cl)nc(NCCn3c(O)c(N=Nc4cc(C(=O)O)ccc4C(=O)O)c(CC(=O)OCC)c(C#N)c3=O)n2)c(=O)c1C#N [Compound 255] |  |  | ◯ | ⊚ | ⊚ | ◯
Cc1c(N=Nc2c(C(=O)O)cccc2C(=O)O)c(O)n(CCNc2nc(Cl)nc(NCCn3c(O)c(N=Nc4c(C(=O)O)cccc4C(=O)O)c(C)c(C#N)c3=O)n2)c(=O)c1C#N [Compound 256] |  |  | Δ | ⊚ | ⊚ | ◯
Cc1c(N=Nc2cccc(C(=O)O)c2C(=O)O)c(O)n(CCCNc2nc(Cl)nc(NCCCn3c(O)c(N=Nc4cccc(C(=O)O)c4C(=O)O)c(C)c(C#N)c3=O)n2)c(=O)c1C#N [Compound 260] |  |  | Δ | ⊚ | ⊚ | ◯
N#Cc1c(-c2ccccc2)c(N=Nc2cc(C(=O)O)ccc2C(=O)O)c(O)n(CCNc2nc(Cl)nc(NCCn3c(O)c(N=Nc4cc(C(=O)O)ccc4C(=O)O)c(-c4ccccc4)c(C#N)c3=O)n2)c1=O [Compound 261] |  |  | Δ | ⊚ | ⊚ | ◯
Cc1c(N=Nc2cc(C(=O)O)ccc2C(=O)O)c(O)n(CCNc2nc(NCCn3c(O)c(N=Nc4cc(C(=O)O)ccc4C(=O)O)c(C)c(C#N)c3=O)nc(NCCn3c(O)c(N=Nc4cc(C(=O)O)ccc4C(=O)O)c(C)c(C#N)c3=O)n2)c(=O)c1C#N [Compound 262] |  |  | Δ | ⊚ | ⊚ | ◯
Cc1c(N=Nc2cc(C(=O)O)ccc2C(=O)O)c(O)n(CCCCCCNc2nc(NCCCCCCn3c(O)c(N=Nc4cc(C(=O)O)ccc4C(=O)O)c(C)c(C#N)c3=O)nc(NCCCCCCn3c(O)c(N=Nc4cc(C(=O)O)ccc4C(=O)O)c(C)c(C#N)c3=O)n2)c(=O)c1C#N [Compound 264] |  |  | Δ | ⊚ | ⊚ | ◯
N#Cc1c(C(F)(F)F)c(N=Nc2cc(C(=O)O)ccc2C(=O)O)c(O)n(CCNc2nc(NCCn3c(O)c(N=Nc4cc(C(=O)O)ccc4C(=O)O)c(C(F)(F)F)c(C#N)c3=O)nc(NCCn3c(O)c(N=Nc4cc(C(=O)O)ccc4C(=O)O)c(C(F)(F)F)c(C#N)c3=O)n2)c1=O [Compound 265] |  |  | Δ | ⊚ | ⊚ | ⊚
Cc1c(N=Nc2c(C(=O)O)cccc2C(=O)O)c(O)n(CCNc2nc(NCCn3c(O)c(N=Nc4c(C(=O)O)cccc4C(=O)O)c(C)c(C#N)c3=O)nc(NCCn3c(O)c(N=Nc4c(C(=O)O)cccc4C(=O)O)c(C)c(C#N)c3=O)n2)c(=O)c1C#N [Compound 267] |  |  | Δ | ⊚ | ⊚ | ◯

Other lines, results leading:

moisture resistance (in words) [1, 5] | light fastness (in words) [2, 5] | (C) storage stability [3] | (B) moisture resistance [1] | (A)-1 light fastness-1 [2] | (A)-2 light fastness-2 [4] | SMILES
 |  | Δ | ⊚ | ⊚ | ◯ | Cc1c(N=Nc2cccc(C(=O)O)c2C(=O)O)c(O)n(CCNc2nc(NCCn3c(O)c(N=Nc4cccc(C(=O)O)c4C(=O)O)c(C)c(C#N)c3=O)nc(NCCn3c(O)c(N=Nc4cccc(C(=O)O)c4C(=O)O)c(C)c(C#N)c3=O)n2)c(=O)c1C#N [Compound 268]
 |  | Δ | ⊚ | ⊚ | ⊚ | Cc1c(N=Nc2cc(C(=O)O)ccc2C(=O)O)c(O)n(CCCNc2nc(NCCn3c(O)c(N=Nc4cc(C(=O)O)ccc4C(=O)O)c(C)c(C#N)c3=O)nc(NCCn3c(O)c(N=Nc4c(C(=O)O)cccc4C(=O)O)c(C)c(C#N)c3=O)n2)c(=O)c1C#N [Compound 270]
 |  | ◯ | ⊚ | ⊚ | ⊚ | CCCCc1c(N=Nc2cc(C(=O)O)ccc2C(=O)O)c(O)n(CCNc2nc(NCCn3c(O)c(N=Nc4cc(C(=O)O)ccc4C(=O)O)c(CCCC)c(C#N)c3=O)nc(NCCn3c(O)c(N=Nc4cc(C(=O)O)ccc4C(=O)O)c(CCCC)c(C#N)c3=O)n2)c(=O)c1C#N [Compound 271]
 |  | ◯ | ⊚ | ⊚ | ⊚ | CCc1c(N=Nc2cc(C(=O)O)ccc2C(=O)O)c(O)n(CCNc2nc(NCCn3c(O)c(N=Nc4cc(C(=O)O)ccc4C(=O)O)c(CC)c(C#N)c3=O)nc(NCCn3c(O)c(N=Nc4cc(C(=O)O)ccc4C(=O)O)c(CC)c(C#N)c3=O)n2)c(=O)c1C#N [Compound 273]
 |  | Δ | ⊚ | ⊚ | ◯ | Cc1c(N=Nc2cc(C(=O)O)ccc2C(=O)O)c(O)n(CCCNc2nc(NCCn3c(O)c(N=Nc4cc(C(=O)O)ccc4C(=O)O)c(C)c(C#N)c3=O)nc(NCCn3c(O)c(N=Nc4c(C(=O)O)cccc4C(=O)O)c(C)c(C#N)c3=O)n2)c(=O)c1C#N [Compound 274]
 |  | Δ | ⊚ | ⊚ | ◯ | CCCCc1c(N=Nc2cc(C(=O)O)ccc2C(=O)O)c(O)n(CCNc2nc(Cl)nc(NCCn3c(O)c(N=Nc4cc(C(=O)O)ccc4C(=O)O)c(CCCC)c(C#N)c3=O)n2)c(=O)c1C#N [Compound 278]
 |  | ◯ | ⊚ | ⊚ | ⊚ | CCc1c(N=Nc2cc(C(=O)O)ccc2C(=O)O)c(O)n(CCCNC(=O)c2cc(C(=O)O)c(C(=O)NCCCn3c(O)c(N=Nc4cc(C(=O)O)ccc4C(=O)O)c(C)c(C#N)c3=O)cc2C(=O)O)c(=O)c1C#N [Compound 280]
 |  | ◯ | ⊚ | ⊚ | ◯ | Cc1c(N=Nc2cc(C(=O)O)ccc2C(=O)O)c(O)n(CCCCCCNC(=O)c2cc(C(=O)O)c(C(=O)NCCCCCCn3c(O)c(N=Nc4cc(C(=O)O)ccc4C(=O)O)c(C)c(C#N)c3=O)cc2C(=O)O)c(=O)c1C#N [Compound 281]
 |  | ◯ | ⊚ | ⊚ | ⊚⊚ | CCc1c(N=Nc2cc(C(=O)O)ccc2C(=O)O)c(O)n(CCNC(=O)c2cc(C(=O)O)c(C(=O)NCCn3c(O)c(N=Nc4cc(C(=O)O)ccc4C(=O)O)c(CC)c(C#N)c3=O)cc2C(=O)O)c(=O)c1C#N [Compound 283]
 |  | ◯ | ⊚ | ⊚ | ⊚⊚ | CCCCc1c(N=Nc2cc(C(=O)O)ccc2C(=O)O)c(O)n(CCNC(=O)c2cc(C(=O)O)c(C(=O)NCCn3c(O)c(N=Nc4cc(C(=O)O)ccc4C(=O)O)c(CCCC)c(C#N)c3=O)cc2C(=O)O)c(=O)c1C#N [Compound 284]
